Where two headings read alike, the source gives them in different places.
Tests used:
Assay type in all cases: in vivo
[1] = tested on: pigweed (Amaranthus retroflexus); assay: Test A preemergence; conditions: Amaranthus retroflexus, pre-emergence, 240 h; for pest or weed control at 125 g/ha: 125 g ai/ha; for pest or weed control at 500 g/ha: 500 g ai/ha
[2] = tested on: Galium (catchweed bedstraw, Galium aparine); assay: Test A postemergence; conditions: Galium, post-emergence, 240 h; for pest or weed control at 125 g/ha: 125 g ai/ha
Summary of the method: (§1)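 Compounds were formulated in a non-phytotoxic solvent mixture with surfactant and applied as a preemergence directed soil spray after seeding, or sprayed postemergence over plants 2 to 10 cm tall at the one- to two-leaf stage. Evaluation after about 10 d compared treated with untreated controls, using a scale from 0 (no effect) to 100 (complete control).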

Kochia (Kochia scoparia) = assay: Test A postemergence; conditions: Bassia scoparia, post-emergence, 240 h; for pest or weed control at 125 g/ha: 125 g ai/ha
Summary of the method: as §1

[3] = tested on: barnyardgrass (Echinochloa crus-galli); assay: Test A postemergence; conditions: Echinochloa crus-galli, post-emergence, 240 h; for pest or weed control at 125 g/ha: 125 g ai/ha
Summary of the method: as §1

[4] = tested on: blackgrass (Alopecurus myosuroides); assay: Test A postemergence; conditions: Alopecurus myosuroides, post-emergence, 240 h; for pest or weed control at 125 g/ha: 125 g ai/ha
Summary of the method: as §1

corn (Zea mays) = assay: Test A postemergence; conditions: Zea mays, post-emergence, 240 h; for Corn plant response rating (crop injury, 0 = no effect, 100 = complete kill) at 125 g/ha: Postemergence, visual injury after approximately 10 d, 0 to 100 scale where 0 is no effect and 100 is complete control
Summary of the method: as §1

[5] = tested on: giant foxtail (Setaria faberii); assay: Test A postemergence; conditions: Setaria faberi, post-emergence, 240 h; for pest or weed control at 125 g/ha: 125 g ai/ha
Summary of the method: as §1

[6] = tested on: pigweed (Amaranthus retroflexus); assay: Test A postemergence; conditions: Amaranthus retroflexus, post-emergence, 240 h; for pest or weed control at 125 g/ha: 125 g ai/ha
Summary of the method: as §1

[7] = tested on: ragweed (common ragweed, Ambrosia elatior); assay: Test A postemergence; conditions: Ambrosia artemisiifolia, post-emergence, 240 h; for pest or weed control at 125 g/ha: 125 g ai/ha
Summary of the method: as §1

[8] = tested on: ryegrass, Italian (Italian ryegrass, Lolium multiflorum); assay: Test A postemergence; conditions: Lolium multiflorum, post-emergence, 240 h; for pest or weed control at 125 g/ha: 125 g ai/ha
Summary of the method: as §1

[9] = tested on: wheat (Triticum aestivum); assay: Test A postemergence; conditions: Triticum aestivum, post-emergence, 240 h; for plant injury at 125 g/ha: 125 g ai/ha
Summary of the method: as §1

[10] = tested on: barnyardgrass (Echinochloa crus-galli); assay: Test B flooded paddy test; conditions: Echinochloa crus-galli, Flood, 250 g ai/ha, read-out: Barnyardgrass plant response rating
Summary of the method: (§2)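 Greenhouse paddy pots with 2-leaf stage plants received compound by direct addition to floodwater 3 cm deep, kept at that level. Scored visually at 13–15 d versus controls (0 no effect; 100 complete control).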

[11] = tested on: ducksalad (Heteranthera limosa); assay: Test B flooded paddy test; conditions: Heteranthera limosa, Flood, 250 g ai/ha, read-out: Ducksalad plant response rating
Summary of the method: as §2

rice (Oryra sativa) = assay: Test B flooded paddy test; conditions: Oryza sativa, Flood, 250 g ai/ha, read-out: Rice plant response rating
Summary of the method: as §2

[12] = tested on: sedge, umbrella (small-flower umbrella sedge, Cyperus difformis); assay: Test B flooded paddy test; conditions: Cyperus difformis, 250 g ai/ha, Flood, read-out: Sedge, Umbrella plant response rating
Summary of the method: as §2

[13] = Preemergence, visual injury rating after approximately 10 d, read-out: Pigweed plant response rating (0 to 100 scale, 0 is no effect, 100 is complete control)
[14] = preemergence, visual injury rating about 10 d after treatment, 0 to 100 scale (0 no effect, 100 complete control), read-out: Pigweed plant response rating
[15] = Postemergence, visual injury after approximately 10 d, 0 to 100 scale where 0 is no effect and 100 is complete control, read-out: Plant response rating, Galium
[16] = Postemergence, visual injury after approximately 10 d, 0 to 100 scale where 0 is no effect and 100 is complete control, read-out: Plant response rating, Kochia
[17] = Postemergence, visual injury after approximately 10 d, 0 to 100 scale where 0 is no effect and 100 is complete control, read-out: Plant response rating, Barnyardgrass
[18] = Postemergence, visual injury after approximately 10 d, 0 to 100 scale where 0 is no effect and 100 is complete control, read-out: Plant response rating, Blackgrass
[19] = Postemergence, visual injury after approximately 10 d, 0 to 100 scale where 0 is no effect and 100 is complete control, read-out: Plant response rating, Foxtail, Giant
[20] = Postemergence, visual injury after approximately 10 d, 0 to 100 scale where 0 is no effect and 100 is complete control, read-out: Plant response rating, Pigweed
[21] = Postemergence, visual injury after approximately 10 d, 0 to 100 scale where 0 is no effect and 100 is complete control, read-out: Plant response rating, Ragweed
[22] = Postemergence, visual injury after approximately 10 d, 0 to 100 scale where 0 is no effect and 100 is complete control, read-out: Plant response rating, Ryegrass, Italian
[23] = Postemergence, visual injury after approximately 10 d, 0 to 100 scale where 0 is no effect and 100 is complete control, read-out: Plant response rating, Wheat
[24] = scale of 0 to 100 where 0 is no effect and 100 is complete control
[25] = 0 to 100 scale where 0 is no effect and 100 is complete control

Row | Structure (SMILES) | pest or weed control at 125 g/ha [1, 13] [%] | pest or weed control at 500 g/ha [1, 14] [%] | pest or weed control at 125 g/ha [2, 15] [%] | pest or weed control at 125 g/ha (Kochia (Kochia scoparia); [16]) [%] | pest or weed control at 125 g/ha [3, 17] [%] | pest or weed control at 125 g/ha [4, 18] [%] | Corn plant response rating (crop injury, 0 = no effect, 100 = complete kill) at 125 g/ha (corn (Zea mays); 125 g ai/ha) [%] | pest or weed control at 125 g/ha [5, 19] [%] | pest or weed control at 125 g/ha [6, 20] [%] | pest or weed control at 125 g/ha [7, 21] [%] | pest or weed control at 125 g/ha [8, 22] [%] | plant injury at 125 g/ha [9, 23] [%] | pest or weed control at 250 g/ha [10, 24] [%] | pest or weed control at 250 g/ha [11, 24] [%] | pest or weed control at 250 g/ha (rice (Oryra sativa); [24]) [%] | pest or weed control at 250 g/ha [12, 25] [%] | other results
1 | CN1CC[C@H](c2ccc(OC(F)(F)F)cc2)[C@@H](C(=O)Nc2ccccc2C(F)(F)F)C1=O [Compound 998] | 0 | 0 | 0 | 0 | 0 | 0 | 0 | 0 | 0 | 0 | 0 | 0 | 0 | 0 | 0 | 0 | –
2 | CN1C[C@H](c2cc(F)cc(F)c2)[C@@H](C(=O)Nc2ccc(C(F)(F)F)cn2)C1=O [Compound 869] | – | – | – | – | – | – | – | – | – | – | – | – | 0 | 60 | 0 | – | pest or weed control at 125 g/ha ([1]; preemergence, 0 to 100 scale where 0 is no effect and 100 is complete control, read-out: Pigweed plant response rating): 0%; pest or weed control at 500 g/ha ([1]; Preemergence, visual injury vs untreated controls after approximately 10 d, read-out: Pigweed plant response rating (0 to 100 scale where 0 is no effect and 100 is complete control)): 0%; pest or weed control at 125 g/ha ([2]; postemergence, visual injury rating after approximately 10 d, read-out: Galium plant response rating (0 to 100 scale, 0 no effect, 100 complete control)): 0%; pest or weed control at 125 g/ha (Kochia (Kochia scoparia); postemergence, visual injury rating after approximately 10 d, read-out: Kochia plant response rating (0 to 100 scale, 0 no effect, 100 complete control)): 0%; pest or weed control at 125 g/ha ([3]; postemergence, visual injury rating after approximately 10 d, read-out: Barnyardgrass plant response rating (0 to 100 scale, 0 no effect, 100 complete control)): 80%; pest or weed control at 125 g/ha ([4]; postemergence, visual injury rating after approximately 10 d, read-out: Blackgrass plant response rating (0 to 100 scale, 0 no effect, 100 complete control)): 0%; plant injury at 125 g/ha (corn (Zea mays); 125 g ai/ha, postemergence, visual injury rating after approximately 10 d, read-out: Corn plant response rating (0 to 100 scale, 0 no effect, 100 complete control)): 0%; pest or weed control at 125 g/ha ([5]; postemergence, visual injury rating after approximately 10 d, read-out: Foxtail, Giant plant response rating (0 to 100 scale, 0 no effect, 100 complete control)): 60%; pest or weed control at 125 g/ha ([6]; postemergence, visual injury rating after approximately 10 d, read-out: Pigweed plant response rating (0 to 100 scale, 0 no effect, 100 complete control)): 0%; pest or weed control at 125 g/ha ([7]; postemergence, visual injury rating after approximately 10 d, read-out: Ragweed plant response rating (0 to 100 scale, 0 no effect, 100 complete control)): 0%; pest or weed control at 125 g/ha ([8]; postemergence, visual injury rating after approximately 10 d, read-out: Ryegrass, Italian plant response rating (0 to 100 scale, 0 no effect, 100 complete control)): 0%; plant injury at 125 g/ha ([9]; postemergence, visual injury rating after approximately 10 d, read-out: Wheat plant response rating (0 to 100 scale, 0 no effect, 100 complete control)): 0%; pest or weed control at 250 g/ha [12, 24]: 0%
3 | Cc1ccc([C@H]2CN(C)C(=O)[C@@H]2C(=O)Nc2cccc(F)c2F)cc1Cl [Compound 1013] | 30 | 40 | 70 | 40 | 90 | 0 | 80 | 80 | 0 | 0 | 0 | 40 | – | – | – | 100 | pest or weed control at 500 g/ha ([2]; 500 g ai/ha, postemergence, visual injury, 0 to 100 scale (0 no effect, 100 complete control), approx. 10 d, read-out: Plant response rating, Galium): 70%; pest or weed control at 500 g/ha (Kochia (Kochia scoparia); 500 g ai/ha, postemergence, visual injury, 0 to 100 scale (0 no effect, 100 complete control), approx. 10 d, read-out: Plant response rating, Kochia): 60%; pest or weed control at 500 g/ha ([3]; 500 g ai/ha, postemergence, visual injury, 0 to 100 scale (0 no effect, 100 complete control), approx. 10 d, read-out: Plant response rating, Barnyardgrass): 90%; pest or weed control at 500 g/ha ([4]; 500 g ai/ha, postemergence, visual injury, 0 to 100 scale (0 no effect, 100 complete control), approx. 10 d, read-out: Plant response rating, Blackgrass): 40%; Corn plant response rating (crop injury, 0 = no effect, 100 = complete kill) at 500 g/ha (corn (Zea mays); 500 g ai/ha, postemergence, visual injury, 0 to 100 scale (0 no effect, 100 complete control), approx. 10 d): 90%; pest or weed control at 500 g/ha ([5]; 500 g ai/ha, postemergence, visual injury, 0 to 100 scale (0 no effect, 100 complete control), approx. 10 d, read-out: Plant response rating, Foxtail, Giant): 90%; pest or weed control at 500 g/ha ([6]; 500 g ai/ha, postemergence, visual injury, 0 to 100 scale (0 no effect, 100 complete control), approx. 10 d, read-out: Plant response rating, Pigweed): 40%; pest or weed control at 500 g/ha ([7]; 500 g ai/ha, postemergence, visual injury, 0 to 100 scale (0 no effect, 100 complete control), approx. 10 d, read-out: Plant response rating, Ragweed): 40%; pest or weed control at 500 g/ha ([8]; 500 g ai/ha, postemergence, visual injury, 0 to 100 scale (0 no effect, 100 complete control), approx. 10 d, read-out: Plant response rating, Ryegrass, Italian): 60%; plant injury at 500 g/ha ([9]; 500 g ai/ha, postemergence, visual injury, 0 to 100 scale (0 no effect, 100 complete control), approx. 10 d, read-out: Plant response rating, Wheat): 60%; pest or weed control at 250 g/ha [10, 25]: 55%; pest or weed control at 250 g/ha [11, 25]: 100%; pest or weed control at 250 g/ha (rice (Oryra sativa); [25]): 70%

Reference: US12077503B2, “Substituted cyclic amides and their use as herbicides” (FMC CORPORATION, priority 2015, dated 2024)
